Data taken from patent US11931431B2, “PSMA-targeted radiopharmaceutical for diagnosing and treating prostate cancer” (FUTURECHEM CO., LTD, priority 2018, dated 2024).
“Also recorded” adds a separate entry of the source. Like-named read-outs stand apart in the source and are kept apart here.

Assays:
PSMA = PSMA (Homo sapiens, UniProt Q04609); test: Measurement of binding capacity: competition with [^125I]30 on 22RV1 cells; set-up: host or cells: 22RV1 human prostate cancer cells
Description: To confirm the binding capacity of the compounds of the present invention to PSMA, the following experiment was performed.
RPMI1640 supplemented with 1% BSA (bovine serum albumin) was used as a buffer solution.
[^125I]30 (0.1 nM) obtained in Comparative Example 1 was added to a vessel containing 22RV1 cells (5×10^4), to which the compound represented by formula 1 was loaded at 9 concentrations (1.00×10^−4˜1.00×10^−12 M), followed by stirring at 37° C. for 2 hours. Upon completion of the stirring, the vessel was washed with PBS solution (2 mL) three times, and then the radioactivity was measured using a gamma counter (2480 WIZARD2 Gamma Counter PerkinElmer Co., MA). The 50% inhibition concentration (IC50) for each compound was calculated using a GraphPad Prism program (GraphPad Software, Inc., CA)
(Maresca, K. P. et al., 2009, J. Med. Chem. 52, 347-357)

[1] = Measurement of lipophilicity (log P), n-octanol/PBS; assay type: physicochemical; conditions: mean of 3
Description: Each of the [^68Ga]1 compounds (1˜2 mci) synthesized in Example 14 was transferred into a vial, and the solvent was removed, to which 1 mL of n-octanol and 1 mL of PBS were added, and the lid was well closed, followed by mixing with a vortex for 1 minute. After the layers were separated, 0.1 mL was taken from each layer and the radiation dose was measured. The radiation dose was measured by repeating 3 times, and the mean value was obtained.

PSMA^+ PC-3 PIP tumors = test: MicroPET/CT imaging of mice transplanted with prostate cancer cell lines; assay type: in vivo, nude mouse
Description: A tumor model was prepared by subcutaneously injecting PSMA^+ PC-3 PIP cells (a human prostate cancer cell line) to the right side of the nude mouse hind leg. Each of the ^68Ga-labeled compounds [^68Ga]1e, [^68Ga]1g, [^68Ga]1h and [^68Ga]1k was intravenously injected with 5.5 to 6.5 MBq (148-175 μCi/200 μL), and PET/CT images were obtained using small animal INVEON PET/CT (Siemens medical solutions, Knoxville, USA) for 60 minutes. After 150 minutes, 270 minutes, and 390 minutes, PET/CT images were also obtained for 30 minutes. The obtained PET/CT image results were quantitatively analyzed using Inveon™ Research Workplace (IRW).
FIGS. 1, 2, 3, and 4 are graphs showing the quantitative analysis results of MicorPET/CT images for [^68Ga]1e, [^68Ga]1g, [^68Ga]1h, and [^68Ga]1k in % injected dose (ID)/g, and summarized in Tables 3, 4, 5, and 6, respectively.

[2] = 22RV1 cells, [^125I]30 0.1 nM, 37° C., 2 hours, read-out: IC50
[3] = 22RV1 cells, [^125I]30 0.1 nM, 37° C., 2 hours, read-out: Ki value

Chain of PSMA (Q04609 whole entry): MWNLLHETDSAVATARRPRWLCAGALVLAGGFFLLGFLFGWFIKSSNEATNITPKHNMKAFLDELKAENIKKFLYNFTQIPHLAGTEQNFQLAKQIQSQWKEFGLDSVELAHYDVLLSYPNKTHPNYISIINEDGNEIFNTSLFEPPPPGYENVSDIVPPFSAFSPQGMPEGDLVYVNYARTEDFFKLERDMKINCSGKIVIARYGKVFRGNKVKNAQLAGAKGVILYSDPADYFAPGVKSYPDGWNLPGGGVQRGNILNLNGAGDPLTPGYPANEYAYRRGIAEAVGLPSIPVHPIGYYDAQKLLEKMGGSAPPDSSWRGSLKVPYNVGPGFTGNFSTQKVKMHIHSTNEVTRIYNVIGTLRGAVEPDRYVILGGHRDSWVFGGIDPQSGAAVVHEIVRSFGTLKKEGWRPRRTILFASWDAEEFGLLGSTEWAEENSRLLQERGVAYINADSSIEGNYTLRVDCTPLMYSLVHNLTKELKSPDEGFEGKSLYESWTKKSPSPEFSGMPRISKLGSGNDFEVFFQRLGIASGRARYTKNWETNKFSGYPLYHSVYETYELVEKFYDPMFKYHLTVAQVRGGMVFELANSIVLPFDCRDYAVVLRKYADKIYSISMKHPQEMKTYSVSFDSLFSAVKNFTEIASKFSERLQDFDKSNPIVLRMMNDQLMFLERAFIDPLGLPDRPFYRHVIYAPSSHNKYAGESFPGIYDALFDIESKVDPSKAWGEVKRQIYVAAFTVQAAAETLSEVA

O=C(O)CCC(NC(=O)NC(CCCCN(CC(=O)O)C(=O)COCCOCCNC(=O)C(CCCCNC(=O)CCCc1ccc(I)cc1)NC(=O)CN1CCN2CCN3CCN(CC1)CC(=O)[O][Ga]([O]C(=O)C2)[O]C(=O)C3)C(=O)O)C(=O)O (stereo not drawn) [Ga-1h]
IC50 (PSMA): 0.011 ± 0.00035 µM
Ki (PSMA): 0.003 ± 0.0001 µM
binding force / binding capacity to PSMA, in words (PSMA; 22RV1 cells): higher binding capacity than the compound Ga-1e; also recorded: highest binding capacity

O=C(O)CC[C@H](NC(=O)N[C@@H](CCCCN(CC(=O)O)C(=O)COCCNC(=O)CN1CCN2CCN3CCN(CC1)CC(=O)[O][Ga]([O]C(=O)C2)[O]C(=O)C3)C(=O)O)C(=O)O [Ga-1i]
IC50 (PSMA; [2]): 0.069 ± 0.00327 µM
Ki (PSMA; [3]): 0.0144 ± 0.00068 µM

O=C(O)CC[C@H](NC(=O)N[C@@H](CCCCN(CC(=O)O)C(=O)COCCNC(=O)[C@H](CCCCNC(=O)CCCc1ccc(I)cc1)NC(=O)CN1CCN2CCN3CCN(CC1)CC(=O)[O][Ga]([O]C(=O)C2)[O]C(=O)C3)C(=O)O)C(=O)O [Ga-1k]
IC50 (PSMA; [2]): 0.0639 ± 0.00609 µM
Ki (PSMA; [3]): 0.0127 ± 0.00107 µM

O=C(O)CC[C@H](NC(=O)N[C@@H](CCC(=O)N(CCOCCOCCNC(=O)CN1CCN2CCN3CCN(CC1)CC(=O)[O][Ga]([O]C(=O)C2)[O]C(=O)C3)CC(=O)O)C(=O)O)C(=O)O [Ga-1n]
IC50 (PSMA; [2]): 0.174 ± 0.00387 µM
Ki (PSMA; [3]): 0.0321 ± 0.00071 µM

O=C(O)CC[C@H](NC(=O)N[C@@H](CCC(=O)N(CCOCCOCCNC(=O)CN1CCN2CCN3CCN(CC1)CC(=O)[O][Ga]([O]C(=O)C2)[O]C(=O)C3)CCC(=O)O)C(=O)O)C(=O)O [Ga-1o]
IC50 (PSMA; [2]): 1.14 ± 0.0824 µM
Ki (PSMA; [3]): 0.282 ± 0.0204 µM

O=C(O)CCC(NC(=O)NC(CCC(=O)N(CC(=O)O)Cc1cn(CCOCCNC(=O)CN2CCN3CCN4CCN(CC2)CC(=O)[O][Ga]([O]C(=O)C3)[O]C(=O)C4)nn1)C(=O)O)C(=O)O (stereo not drawn) [Ga-1p]
IC50 (PSMA; [2]): 0.703 ± 0.145 µM
Ki (PSMA; [3]): 0.13 ± 0.0266 µM

O=C(O)CCC(NC(=O)NC(CCCCN(CC(=O)O)C(=O)COCCOCCNC(=O)C(CCCCNC(=O)CCCc1ccc(I)cc1)NC(=O)CN1CCN2CCN3CCN(CC1)CC(=O)[O][68Ga]([O]C(=O)C2)[O]C(=O)C3)C(=O)O)C(=O)O (stereo not drawn) [[^68Ga]1h]
logP [1]: −1.89
intake of mouse organ: Bladder (PSMA^+ PC-3 PIP tumors; 10 min after injection): 2.12 ± 0.39 % ID/g
intake of mouse organ: Heart (PSMA^+ PC-3 PIP tumors; 10 min after injection): 24.69 ± 0.20 % ID/g
intake of mouse organ: Kidney (PSMA^+ PC-3 PIP tumors; 10 min after injection): 13.26 ± 2.36 % ID/g
intake of mouse organ: Liver (PSMA^+ PC-3 PIP tumors; 10 min after injection): 14.96 ± 0.03 % ID/g
intake of mouse organ: Muscle (PSMA^+ PC-3 PIP tumors; 10 min after injection): 2.24 ± 0.15 % ID/g
intake of mouse organ: Tumor (PIP) (PSMA^+ PC-3 PIP tumors; 10 min after injection): 1.94 ± 0.35 % ID/g
intake of mouse organ: Bladder (PSMA^+ PC-3 PIP tumors; 20 min after injection): 2.91 ± 0.69 % ID/g
intake of mouse organ: Heart (PSMA^+ PC-3 PIP tumors; 20 min after injection): 21.30 ± 0.11 % ID/g
intake of mouse organ: Kidney (PSMA^+ PC-3 PIP tumors; 20 min after injection): 12.56 ± 0.86 % ID/g
intake of mouse organ: Liver (PSMA^+ PC-3 PIP tumors; 20 min after injection): 12.71 ± 0.03 % ID/g
intake of mouse organ: Muscle (PSMA^+ PC-3 PIP tumors; 20 min after injection): 2.97 ± 0.35 % ID/g
intake of mouse organ: Tumor (PIP) (PSMA^+ PC-3 PIP tumors; 20 min after injection): 3.74 ± 0.97 % ID/g
intake of mouse organ: Bladder (PSMA^+ PC-3 PIP tumors; 30 min after injection): 3.14 ± 0.51 % ID/g
intake of mouse organ: Heart (PSMA^+ PC-3 PIP tumors; 30 min after injection): 17.38 ± 0.04 % ID/g
intake of mouse organ: Kidney (PSMA^+ PC-3 PIP tumors; 30 min after injection): 12.61 ± 0.71 % ID/g
intake of mouse organ: Liver (PSMA^+ PC-3 PIP tumors; 30 min after injection): 10.37 ± 0.12 % ID/g
intake of mouse organ: Muscle (PSMA^+ PC-3 PIP tumors; 30 min after injection): 2.98 ± 0.34 % ID/g
intake of mouse organ: Tumor (PIP) (PSMA^+ PC-3 PIP tumors; 30 min after injection): 5.00 ± 1.41 % ID/g
intake of mouse organ: Bladder (PSMA^+ PC-3 PIP tumors; 40 min after injection): 4.52 ± 0.97 % ID/g
intake of mouse organ: Heart (PSMA^+ PC-3 PIP tumors; 40 min after injection): 15.25 ± 0.15 % ID/g
intake of mouse organ: Kidney (PSMA^+ PC-3 PIP tumors; 40 min after injection): 13.51 ± 0.46 % ID/g
intake of mouse organ: Liver (PSMA^+ PC-3 PIP tumors; 40 min after injection): 8.86 ± 0.35 % ID/g
intake of mouse organ: Muscle (PSMA^+ PC-3 PIP tumors; 40 min after injection): 3.28 ± 0.23 % ID/g
intake of mouse organ: Tumor (PIP) (PSMA^+ PC-3 PIP tumors; 40 min after injection): 6.22 ± 1.75 % ID/g
intake of mouse organ: Bladder (PSMA^+ PC-3 PIP tumors; 50 min after injection): 8.26 ± 4.41 % ID/g
intake of mouse organ: Heart (PSMA^+ PC-3 PIP tumors; 50 min after injection): 13.52 ± 0.55 % ID/g
intake of mouse organ: Kidney (PSMA^+ PC-3 PIP tumors; 50 min after injection): 13.44 ± 0.71 % ID/g
intake of mouse organ: Liver (PSMA^+ PC-3 PIP tumors; 50 min after injection): 7.83 ± 0.45 % ID/g
intake of mouse organ: Muscle (PSMA^+ PC-3 PIP tumors; 50 min after injection): 3.25 ± 0.36 % ID/g
intake of mouse organ: Tumor (PIP) (PSMA^+ PC-3 PIP tumors; 50 min after injection): 7.12 ± 2.07 % ID/g
intake of mouse organ: Bladder (PSMA^+ PC-3 PIP tumors; 60 min after injection): 12.62 ± 5.31 % ID/g
intake of mouse organ: Heart (PSMA^+ PC-3 PIP tumors; 60 min after injection): 12.14 ± 0.91 % ID/g
intake of mouse organ: Kidney (PSMA^+ PC-3 PIP tumors; 60 min after injection): 13.60 ± 1.72 % ID/g
intake of mouse organ: Liver (PSMA^+ PC-3 PIP tumors; 60 min after injection): 7.19 ± 0.49 % ID/g
intake of mouse organ: Muscle (PSMA^+ PC-3 PIP tumors; 60 min after injection): 3.14 ± 0.20 % ID/g
intake of mouse organ: Tumor (PIP) (PSMA^+ PC-3 PIP tumors; 60 min after injection): 7.90 ± 2.46 % ID/g
intake of mouse organ: Bladder (PSMA^+ PC-3 PIP tumors; 150 min after injection): 19.45 ± 12.23 % ID/g
intake of mouse organ: Heart (PSMA^+ PC-3 PIP tumors; 150 min after injection): 5.55 ± 2.19 % ID/g
intake of mouse organ: Kidney (PSMA^+ PC-3 PIP tumors; 150 min after injection): 6.40 ± 1.41 % ID/g
intake of mouse organ: Liver (PSMA^+ PC-3 PIP tumors; 150 min after injection): 2.80 ± 0.99 % ID/g
intake of mouse organ: Muscle (PSMA^+ PC-3 PIP tumors; 150 min after injection): 1.70 ± 0.57 % ID/g
intake of mouse organ: Tumor (PIP) (PSMA^+ PC-3 PIP tumors; 150 min after injection): 9.90 ± 4.53 % ID/g
intake of mouse organ: Bladder (PSMA^+ PC-3 PIP tumors; 270 min after injection): 15.90 ± 4.53 % ID/g
intake of mouse organ: Heart (PSMA^+ PC-3 PIP tumors; 270 min after injection): 5.75 ± 0.21 % ID/g
intake of mouse organ: Kidney (PSMA^+ PC-3 PIP tumors; 270 min after injection): 7.45 ± 1.63 % ID/g
intake of mouse organ: Liver (PSMA^+ PC-3 PIP tumors; 270 min after injection): 3.00 ± 0.28 % ID/g
intake of mouse organ: Muscle (PSMA^+ PC-3 PIP tumors; 270 min after injection): 1.70 ± 0.14 % ID/g
intake of mouse organ: Tumor (PIP) (PSMA^+ PC-3 PIP tumors; 270 min after injection): 14.20 ± 0.00 % ID/g
intake of mouse organ: Bladder (PSMA^+ PC-3 PIP tumors; 390 min after injection): 22.80 ± 9.90 % ID/g
intake of mouse organ: Heart (PSMA^+ PC-3 PIP tumors; 390 min after injection): 3.90 ± 0.42 % ID/g
intake of mouse organ: Kidney (PSMA^+ PC-3 PIP tumors; 390 min after injection): 5.85 ± 0.92 % ID/g
intake of mouse organ: Liver (PSMA^+ PC-3 PIP tumors; 390 min after injection): 2.35 ± 0.07 % ID/g
intake of mouse organ: Muscle (PSMA^+ PC-3 PIP tumors; 390 min after injection): 1.30 ± 0.14 % ID/g
intake of mouse organ: Tumor (PIP) (PSMA^+ PC-3 PIP tumors; 390 min after injection): 16.75±0.92 % ID/g
excretion, in words (PSMA^+ PC-3 PIP tumors; MicroPET/CT): rapidly excreted out of the body
residence time in the blood, in words (PSMA^+ PC-3 PIP tumors; MicroPET/CT): residence time in the blood was increased
tumor intake over time, in words (PSMA^+ PC-3 PIP tumors; MicroPET/CT): tumor intake continued to increase after 390 minutes

O=C(O)CC[C@H](NC(=O)N[C@@H](CCC(=O)N(CCOCCOCCNC(=O)CN1CCN2CCN3CCN(CC1)CC(=O)[O][68Ga]([O]C(=O)C2)[O]C(=O)C3)CC(=O)O)C(=O)O)C(=O)O [[^68Ga]1n]
logP [1]: −3.06
